The source of these data is patent US20110189094A1, “BIOLOGICAL METHOD FOR IN VIVO TRACKING OF MOLECULES AFFECTING CELLULAR MIGRATION” (UNIVERSIDAD DE CHILE, priority 2008, published 2011).

In one experiment the test system is lateral line primordium. Nature of the experiment: Lateral line primordium migration in CldnB::GFP transgenic zebra fish larvae (GFP fluorescence). In kind it is in vivo, zebra fish (Danio rerio). The note with it: 20 μM in medium, 22 hpf until 36 hpf. The procedure:
(§1) Zebra fish (Danio rerio) are used, kept in a 14/10-hour light/darkness cycle. Embryos are recovered after natural fish mating and they grow in Petri plates at 28° C. in E3 medium (5 mM NaCl, 0.17 mM KCl, 0.33 mM CaCl2, 0.33 mM MgSO4, and 0.1% Methylene Blue) until the reach the development stadium suitable for the test, which is determined according to Kimmel et al., (1995). The larval stadiums are designated in post fertilization hours (hpf) or post fertilization days (dpf).
In this first example, in each cup on a plate with 24 cups with 2 ml of E3 medium each, we placed from 3-10 transgenic embryos that express the GFP gene under the control of the CldnB promoter (CldnB::GFP; kindly donated by Dr. Darren Gilmour (EMBL, Heidelberg, Germany). The agents subjected to tests (N˜(4˜hydroxyphenyl)retinamide (Fenretinide, 4-HPR), retinaldehide 9-cis, retinaldehide all-trans and only with the control vehicle: DMSO) were added to the medium at a final concentration of 20 μM when the embryos reached the 22 hpf stadium and the fish were kept in the medium plus the agent until 36 hpf. The GFP mark in the migratory primordium was observed every 4-6 hours in order to monitor its progress. At 36 hpf, we fixed one half of the fish (5 from each cup) with 4% paraformaldehyde dissolved in PBS. We observe the fluorescence of GFP (indicating the primordium position) and evaluated whether it migrated properly or not (FIG. 1).

The test system of a further experiment is human dendritic cells. The conditions noted are these: literature, Nencioni et al. 2002; cited from earlier work.
The test system of another experiment is neuromasts. Nature of the experiment: DiAsp tinction of mature neuromasts of the posterior lateral line in zebra fish embryos. Type of experiment: in vivo, zebra fish (Danio rerio). On the procedure: as §1
(§2) In this way, we have evaluated our hypothesis of the Fenritinide effect on dendritic cells, taking our invention as the test model. Zebra fish embryos were incubated in accordance with the basic conditions described in Example 1, but in the presence of Fenritinide since the time when the posterior lateral line primordium starts to migrate (22 hours post fecundation (hpf) stadium), until the LLP system is mature (36 hpf stadium) and is easily visualized with the DiAsp tinction. […] We checked whether the absence of mature neuromasts is caused by migration blocking by means of in situ hybridization using the claudin-B (anti-claudinB antibody, detected with immunofluorescence) primordium marker.
(§3) Embryos in the 22 hpf stadium were incubated between 26 and 28° C., in the absence or presence of either PGD2 or 15-deoxy-PJE2, permitting the development of embryos up to the 36 hpf stadium, at which time we checked the primordium advance both in the treated embryos and in the (untreated) control embryos.

The next experiment relates to LLP primordium. Nature of the experiment: LLP primordium advance in zebra fish embryos incubated with prostaglandins. In kind it is in vivo, zebra fish (Danio rerio). On the procedure: as §1, §3
Experiment [1] concerns posterior lateral line primordium. Nature of the experiment: Primordium migration with claudin-B primordium marker in zebra fish embryos. Type of experiment: in vivo, zebra fish (Danio rerio). The conditions noted are these: Example 2, incubation 22 hpf until 36 hpf. The procedure:
as §1, §2

Experiment [2] concerns CXCR4. Nature of the experiment: Expression of CXCR4 in dendritic cells in maturation. Type of experiment: cell-based. The text has this: (§4) Dendritic cells, when entering the maturation process, start to express chemokine receptors (CCR7, CXCR4) that direct their migration towards the secondary lymphoid organs. We have recently discovered that Fenritinide {4-HPR), a molecule utilized in “clinical trials” against breast cancer and neuroblastoma, inhibits the expression of CCR7 and CXCR4 in dendritic cells in maturation {Villablanca, Allende and collaborators; manuscript in preparation). […] In this way, Fenritinide would produce a blocking of the mature dendritic cells in the periphery, preventing their migration and arrival at the secondary lymphoid organs, affecting in this way the development of an immune response to pathogens or towards the tumoral cells proper.

A further experiment deals with CCR7. Nature of the experiment: Expression of CCR7 in dendritic cells in maturation. In kind it is cell-based.
Text: as §4

For the next experiment, the system named is CD86. Nature of the experiment: Expression of CD86 in dendritic cells. In kind it is cell-based.
Text: as §4

The subject of a further experiment is CD83. Nature of the experiment: Expression of CD83 in dendritic cells. Type of experiment: cell-based.
Text: as §4

The test system of the next experiment is CD80. Nature of the experiment: Expression of CD80 in dendritic cells. In kind it is cell-based.
Text: as §4

Another experiment has as its system dendritic cells. Nature of the experiment: Migration of dendritic cells. In kind it is cell-based. The note with it: negative control.
Text: as §4

The test system of experiment [3] is CXCR4. The note with it: literature, Scandelia et al. 2002; cited from earlier work.
Where [4] appears, read: Example 3, 10 μM, 22 hpf up to 36 hpf.

Consider retinaldehide all-trans [atRA], for which the “migration of the lateral line primordium (GFP fluorescence)” value (“migration of the lateral line primordium” below) with lateral line primordium was “normal migration”.
As to `CCCCC[C@H](O)/C=C/[C@H]1C(=O)C[C@H](O)[C@@H]1C/C=C\CCCC(=O)O` [PGD2], the “migration through CXCR4 in human dendritic cells” value in the experiment with human dendritic cells was “inhibit migration”. Moreover, the “DiAsp tinction of neuromasts” value in the experiment with neuromasts (setting [4]) is “negative”. Also, the LLP primordium migration entry in the experiment with LLP primordium (setting [4]) was “considerably slower”.
Consider `CC1=C(/C=C/C(C)=C\C=C\C(C)=C\C=O)C(C)(C)CCC1` [9cRA, 9-cis retinaldehyde], for which the “migration of the lateral line primordium” value in the experiment on lateral line primordium was “normal migration”.
`CC1=C(/C=C/C(C)=C/C=C/C(C)=C/C(=O)Nc2ccc(O)cc2)C(C)(C)CCC1` [4-HPR, N˜(4˜hydroxyphenyl)retinamide]: in experiment [1], the “primordium migration (claudin-B primordium marker)” value was “blocking of the migratory primordium at the beginning of its migration”. Besides, the “expression of CXCR4” value with CXCR4 [2] was “inhibits”. Further, the “expression of CCR7” value in the experiment with CCR7 is reported as “inhibits”. Moreover, the “migration of the lateral line primordium” value in the experiment on lateral line primordium is “delay in the migration”. The “DiAsp tinction of mature neuromasts” value with neuromasts (Example 2, incubation 22 hpf until 36 hpf) is on record as “negative”. The “inhibition of CD86” value in the experiment on CD86 is on record as “does not inhibit”. Further, the “inhibition of CD83” value in the experiment with CD83 is given as “does not inhibit”. In addition, the “inhibition of CD80” value in the experiment with CD80 is on record as “does not inhibit”.
For the compound `CC1=C(/C=C/C(C)=C/C=C/C(C)=C/C(=O)O)C(C)(C)CCC1` [retinoic acid], the “expression of CXCR4” value in the experiment on CXCR4 [2] was “not capable of inhibiting”. Moreover, the “inhibition of the migration of dendritic cells” value in the experiment on dendritic cells was “not capable of inhibiting”.
With `CCCCC[C@H](O)/C=C/[C@H]1[C@H](O)CC(=O)[C@@H]1C/C=C\CCCC(=O)O` [PGE2], in the experiment on neuromasts (Example 3, 22 hpf up to 36 hpf, 26-28° C., concentration not given), the “DiAsp tinction of neuromasts” value is on record as “dyed with DiAsp”. The “expression of CXCR4 in dendritic cells” value with CXCR4 [3] is recorded as “increments”. Further, the LLP primordium migration entry in the experiment on LLP primordium (Example 3, 22 hpf up to 36 hpf, concentration not given) is listed as “migrated normally”.
